Assays:
[1] = system: acute liver damage induced by allyl alcohol; experiment: protective effect on acute liver damage associated with periportal necrosis, allyl alcohol model; type: in vivo, mouse (dd strain); conditions: 250 mg/kg oral 6 h before allyl alcohol 0.075 ml/kg oral; 24 h after
Procedure: The compound of this invention or anethol trithion was orally administered to the male mouse (4 week/old, dd strain) at the dose of 250 mg/kg. Six hours after it, allyl alcohol was orally administered at the dose of 0.075 ml/kg. Twenty four hours after it, the animals were sacrificed to collect blood samples.

[2] = system: chronic liver damage induced by thioacetamide; experiment: therapeutic effect on chronic liver damage, thioacetamide model (BSP test); type: in vivo, rat (Sprague Dawley); conditions: Group B, diet + 0.2% compound
Procedure: In the tests of this Example, TAA was repeatedly administered to animals to prepare test animals suffering from somewhat chronic liver damages, and then the present compounds were administered thereto to know whether or not the compounds were effective against chronic hepatitis.
The degree of the liver damage and the therapeutic effects of the compounds were evaluated according to BSP test. The BSP test is a method in which BSP (sulfobromophthalein sodium), a dye known to be quickly metabolized in and excreted from the liver, is intravenously injected into animals and, after a definite period of time, the blood is taken out to measure the amount of BSP remaining in the plasma. In case the animals are suffering from the liver damage, the dye will remain, according to the degree of the damage, at the stage where a major portion of BSP is metabolized and excreted in the case of normal animals.
Five groups of rats (Sprague Dawley strain) were treated as follows:
Group A: The rats were orally administered with 100 mg/kg of thioacetamide,at 3 days intervals for 36 days (12 times of the administration), then were submitted for 10 days to a normal diet.
Group B: The rats were orally administered with 100 mg/kg of thioacetamide at 3 days intervals for 36 days (12 times of the administration), then were submitted for 10 days to the normal diet + 0.2% of compound 4.
Group C: The rats were submitted to the normal diet as the control.
Five rats were sacrificed from each group at appropriate intervals for BSP (sulfobromophthalein sodium) test, the results of which were shown as amounts (mg) of BSP remaining in ldl of plasma.

## CC(C)OC(=O)C(C(=O)OC(C)C)=C1SC=CS1 [Compound 4, diisopropyl 1,3-dithiol-2-ylidene malonate]
[1]
  BSP: 17 ± 3.2
[2]; 2 days after compound administration
  BSP remaining in plasma: 7.2 ± 2.5 mg/dL
[2]; 5 days after compound administration
  BSP remaining in plasma: 2.8 ± 0.7 mg/dL
[2]; 10 days after compound administration
  BSP remaining in plasma: 0.5 ± 0.1 mg/dL

Reference: US4118506A, “Pharmaceutical compositions containing 1,3-dithiol-2-ylidene malonate derivatives” (Nihon Nohyaku Co., Ltd., priority 1976, dated 1978)
